According to BigSolDB 2.1:

CCN(CC)C(=S)SSC(=S)N(CC)CC
solubility (mole fraction)
Settings | in THF | in acetonitrile | in dichloromethane | in ethanol | in ethyl acetate | in isobutanol | in isopropanol | in methanol | in n-butanol | in n-propanol
273.15 K | 0.0618 | 0.0134 | 0.11 | 0.000903 | 0.00709 | 0.00101 | 0.000564 | 0.000896 | 0.00109 | 0.00101
278.15 K | 0.0719 | 0.0174 | 0.118 | 0.00111 | 0.0101 | 0.00119 | 0.000733 | 0.00105 | 0.00155 | 0.00127
283.15 K | 0.0825 | 0.024 | 0.13 | 0.00143 | 0.0143 | 0.00146 | 0.000981 | 0.00134 | 0.00216 | 0.00167
288.15 K | 0.0942 | 0.0313 | 0.143 | 0.00192 | 0.0201 | 0.00198 | 0.00133 | 0.00172 | 0.0028 | 0.00229
293.15 K | 0.111 | 0.041 | 0.159 | 0.00266 | 0.0275 | 0.00263 | 0.0018 | 0.00235 | 0.00375 | 0.00301
298.15 K | 0.131 | 0.0558 | 0.175 | 0.00339 | 0.0405 | 0.0035 | 0.0026 | 0.00323 | 0.00518 | 0.00423
303.15 K | 0.152 | 0.0793 | 0.202 | 0.00466 | 0.0571 | 0.0052 | 0.00346 | 0.0042 | 0.00715 | 0.00571
308.15 K | 0.173 | 0.108 | 0.229 | 0.0063 | 0.0809 | 0.00779 | 0.0047 | 0.00541 | 0.0104 | 0.00797
313.15 K | 0.198 | 0.141 | 0.263 | 0.00911 | 0.107 | 0.011 | 0.00651 | 0.00736 | 0.0151 | 0.0106
318.15 K | 0.228 | 0.184 | – | 0.0131 | 0.143 | 0.0152 | 0.00964 | 0.0106 | 0.0208 | 0.0155
